What was measured:
Format in all cases: in vivo
[1] = tested on: barnyardgrass (Echinochloa crus-galli); assay: Test A postemergence; settings: Echinochloa crus-galli, post-emergence, 240 h
Outline: (§1)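 Preemergence directed soil spray on seeded pots, or postemergence application to plants 2–10 cm, one- to two-leaf. Solvent mixture non-phytotoxic, with surfactant. Scored ~10 d later, visually, 0–100 vs untreated.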

[2] = tested on: blackgrass (Alopecurus myosuroides); assay: Test A postemergence; settings: Alopecurus myosuroides, post-emergence, 240 h
Outline: as §1

[3] = tested on: ryegrass, Italian (Italian ryegrass, Lolium multiflorum); assay: Test A postemergence; settings: Lolium multiflorum, post-emergence, 240 h
Outline: as §1

Kochia (Kochia scoparia) [4] = assay: Test A postemergence; settings: Bassia scoparia, post-emergence, 240 h
Outline: as §1

[5] = tested on: giant foxtail (Setaria faberii); assay: Test A postemergence; settings: Setaria faberi, post-emergence, 240 h
Outline: as §1

[6] = tested on: wheat (Triticum aestivum); assay: Test A postemergence; settings: Triticum aestivum, post-emergence, 240 h
Outline: as §1

corn (Zea mays) = assay: Test A postemergence; settings: Zea mays, post-emergence, 240 h
Outline: as §1

[7] = tested on: ragweed (common ragweed, Ambrosia elatior); assay: Test A postemergence; settings: Ambrosia artemisiifolia, post-emergence, 240 h
Outline: as §1

[8] = tested on: pigweed (Amaranthus retroflexus); assay: Test A postemergence; settings: Amaranthus retroflexus, post-emergence, 240 h
Outline: as §1

[9] = tested on: Galium (catchweed bedstraw, Galium aparine); assay: Test A postemergence; settings: Galium, post-emergence, 240 h
Outline: as §1

[10] = tested on: barnyardgrass (Echinochloa crus-galli); assay: Test B flooded paddy test; settings: Echinochloa crus-galli, 250 g ai/ha, Flood; 0 to 100 scale where 0 is no effect and 100 is complete control; read-out: Barnyardgrass plant response rating
Outline: (§2)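 2-leaf plants; pots flooded 3 cm over soil; cpd added to paddy water; depth held; greenhouse 13–15 d; visual rating vs controls, 0 = no effect, 100 = complete control.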

[11] = tested on: sedge, umbrella (small-flower umbrella sedge, Cyperus difformis); assay: Test B flooded paddy test; settings: Cyperus difformis, 250 g ai/ha, Flood; 0 to 100 scale where 0 is no effect and 100 is complete control; read-out: Sedge, Umbrella plant response rating
Outline: as §2

rice (Oryra sativa) = assay: Test B flooded paddy test; settings: Oryza sativa, 250 g ai/ha, Flood; 0 to 100 scale where 0 is no effect and 100 is complete control; read-out: Rice plant response rating
Outline: as §2

[12] = tested on: ducksalad (Heteranthera limosa); assay: Test B flooded paddy test; settings: Heteranthera limosa, 250 g ai/ha, Flood; 0 to 100 scale where 0 is no effect and 100 is complete control; read-out: Ducksalad plant response rating
Outline: as §2

[13] = tested on: barnyardgrass (Echinochloa crus-galli); assay: Test A preemergence; settings: Echinochloa crus-galli, pre-emergence, 240 h, Preemergence
Outline: as §1

[14] = tested on: ryegrass, Italian (Italian ryegrass, Lolium multiflorum); assay: Test A preemergence; settings: Lolium multiflorum, pre-emergence, 240 h, Preemergence
Outline: as §1

Kochia (Kochia scoparia) [15] = assay: Test A preemergence; settings: Bassia scoparia, pre-emergence, 240 h, Preemergence
Outline: as §1

[16] = tested on: giant foxtail (Setaria faberii); assay: Test A preemergence; settings: Setaria faberi, pre-emergence, 240 h, Preemergence
Outline: as §1

[17] = tested on: ragweed (common ragweed, Ambrosia elatior); assay: Test A preemergence; settings: Ambrosia artemisiifolia, pre-emergence, 240 h, Preemergence
Outline: as §1

[18] = tested on: pigweed (Amaranthus retroflexus); assay: Test A preemergence; settings: Amaranthus retroflexus, pre-emergence, 240 h, Preemergence

Question: Which results are given for CSc1ccccc1NC(=O)[C@H]1C(=O)N(C)C[C@@H]1c1ccc(C(F)(F)F)cn1 [Compound 1051]?
Answer: pest or weed control at 125 g/ha ([1]; 125 g ai/ha, postemergence, visual injury on 0 to 100 scale (0 no effect, 100 complete control), approx. 10 d, read-out: Barnyardgrass plant response rating): 0%; pest or weed control at 31 g/ha ([1]; Postemergence, 31 g ai/ha, visual injury after approx. 10 d, 0 to 100 scale, 0 no effect, 100 complete control, read-out: Plant response rating, Barnyardgrass): 0%; pest or weed control at 125 g/ha ([2]; 125 g ai/ha, postemergence, visual injury on 0 to 100 scale (0 no effect, 100 complete control), approx. 10 d, read-out: Blackgrass plant response rating): 0%; pest or weed control at 31 g/ha ([2]; Postemergence, 31 g ai/ha, visual injury after approx. 10 d, 0 to 100 scale, 0 no effect, 100 complete control, read-out: Plant response rating, Blackgrass): 0%; pest or weed control at 125 g/ha ([3]; 125 g ai/ha, postemergence, visual injury on 0 to 100 scale (0 no effect, 100 complete control), approx. 10 d, read-out: Ryegrass, Italian plant response rating): 0%; pest or weed control at 31 g/ha ([3]; Postemergence, 31 g ai/ha, visual injury after approx. 10 d, 0 to 100 scale, 0 no effect, 100 complete control, read-out: Plant response rating, Ryegrass, Italian): 0%; pest or weed control at 125 g/ha (Kochia (Kochia scoparia) [4]; 125 g ai/ha, postemergence, visual injury on 0 to 100 scale (0 no effect, 100 complete control), approx. 10 d, read-out: Kochia plant response rating): 0%; pest or weed control at 31 g/ha (Kochia (Kochia scoparia) [4]; Postemergence, 31 g ai/ha, visual injury after approx. 10 d, 0 to 100 scale, 0 no effect, 100 complete control, read-out: Plant response rating, Kochia): 0%; pest or weed control at 125 g/ha ([5]; 125 g ai/ha, postemergence, visual injury on 0 to 100 scale (0 no effect, 100 complete control), approx. 10 d, read-out: Foxtail, Giant plant response rating): 0%; pest or weed control at 31 g/ha ([5]; Postemergence, 31 g ai/ha, visual injury after approx. 10 d, 0 to 100 scale, 0 no effect, 100 complete control, read-out: Plant response rating, Foxtail, Giant): 0%; plant injury at 125 g/ha ([6]; 125 g ai/ha, postemergence, visual injury on 0 to 100 scale (0 no effect, 100 complete control), approx. 10 d, read-out: Wheat plant response rating): 0%; plant injury at 31 g/ha ([6]; Postemergence, 31 g ai/ha, visual injury after approx. 10 d, 0 to 100 scale, 0 no effect, 100 complete control, read-out: Plant response rating, Wheat): 0%; plant injury at 125 g/ha (corn (Zea mays); 125 g ai/ha, postemergence, visual injury on 0 to 100 scale (0 no effect, 100 complete control), approx. 10 d, read-out: Corn plant response rating): 0%; Corn plant response rating (crop injury, 0 = no effect, 100 = complete kill) at 31 g/ha (corn (Zea mays); Postemergence, 31 g ai/ha, visual injury after approx. 10 d, 0 to 100 scale, 0 no effect, 100 complete control): 0%; pest or weed control at 125 g/ha ([7]; 125 g ai/ha, postemergence, visual injury on 0 to 100 scale (0 no effect, 100 complete control), approx. 10 d, read-out: Ragweed plant response rating): 0%; pest or weed control at 31 g/ha ([7]; Postemergence, 31 g ai/ha, visual injury after approx. 10 d, 0 to 100 scale, 0 no effect, 100 complete control, read-out: Plant response rating, Ragweed): 0%; pest or weed control at 125 g/ha ([8]; 125 g ai/ha, postemergence, visual injury on 0 to 100 scale (0 no effect, 100 complete control), approx. 10 d, read-out: Pigweed plant response rating): 0%; pest or weed control at 31 g/ha ([8]; Postemergence, 31 g ai/ha, visual injury after approx. 10 d, 0 to 100 scale, 0 no effect, 100 complete control, read-out: Plant response rating, Pigweed): 0%; pest or weed control at 125 g/ha ([9]; 125 g ai/ha, postemergence, visual injury on 0 to 100 scale (0 no effect, 100 complete control), approx. 10 d, read-out: Galium plant response rating): 50%; pest or weed control at 31 g/ha ([9]; Postemergence, 31 g ai/ha, visual injury after approx. 10 d, 0 to 100 scale, 0 no effect, 100 complete control, read-out: Plant response rating, Galium): 30%; pest or weed control at 250 g/ha [10]: 0%; pest or weed control at 250 g/ha [11]: 0%; pest or weed control at 250 g/ha (rice (Oryra sativa)): 0%; pest or weed control at 250 g/ha [12]: 75%; pest or weed control at 125 g/ha ([13]; 125 g ai/ha, visual injury rating after approximately 10 d, read-out: Barnyardgrass plant response rating (0 to 100 scale, 0 is no effect, 100 is complete control)): 20%; pest or weed control at 31 g/ha ([13]; 31 g ai/ha, 0 to 100 scale (0 no effect, 100 complete control), read-out: Plant response rating, Barnyardgrass): 0%; pest or weed control at 31 g/ha ([14]; 31 g ai/ha, 0 to 100 scale where 0 is no effect and 100 is complete control, read-out: Ryegrass, Italian plant response rating): 0%; pest or weed control at 125 g/ha ([14]; 125 g ai/ha, visual injury rating after approximately 10 d, read-out: Ryegrass, Italian plant response rating (0 to 100 scale, 0 is no effect, 100 is complete control)): 0%; pest or weed control at 31 g/ha (Kochia (Kochia scoparia) [15]; 31 g ai/ha, 0 to 100 scale where 0 is no effect and 100 is complete control, read-out: Kochia plant response rating): 0%; pest or weed control at 125 g/ha (Kochia (Kochia scoparia) [15]; 125 g ai/ha, visual injury rating after approximately 10 d, read-out: Kochia plant response rating (0 to 100 scale, 0 is no effect, 100 is complete control)): 0%; pest or weed control at 125 g/ha ([16]; 125 g ai/ha, visual injury rating after approximately 10 d, read-out: Foxtail, Giant plant response rating (0 to 100 scale, 0 is no effect, 100 is complete control)): 90%; pest or weed control at 31 g/ha ([16]; 31 g ai/ha, 0 to 100 scale (0 no effect, 100 complete control), read-out: Plant response rating, Foxtail, Giant): 30%; pest or weed control at 31 g/ha ([17]; 31 g ai/ha, 0 to 100 scale where 0 is no effect and 100 is complete control, read-out: Ragweed plant response rating): 0%; pest or weed control at 125 g/ha ([17]; 125 g ai/ha, visual injury rating after approximately 10 d, read-out: Ragweed plant response rating (0 to 100 scale, 0 is no effect, 100 is complete control)): 0%; pest or weed control at 31 g/ha ([18]; 31 g ai/ha, 0 to 100 scale where 0 is no effect and 100 is complete control, read-out: Pigweed plant response rating): 0%; pest or weed control at 125 g/ha ([18]; 125 g ai/ha, visual injury rating after approximately 10 d, read-out: Pigweed plant response rating (0 to 100 scale, 0 is no effect, 100 is complete control)): 40%

From US12077503B2, “Substituted cyclic amides and their use as herbicides” (FMC CORPORATION, priority 2015, dated 2024)
